Experimental data reported in patent US20080275134A1, “Methods for Treatment of Retinal Degenerative Disease” (University of Washington, priority 2005, published 2008).
One block for each compound: values may come before it.

Experiments:
isomerase = biological target: T1, isomerase (Bos taurus, UniProt Q28175); test: isomerase reaction: 11-cis-retinol production by RPE microsomes from all-trans-retinol; assay type: biochemical, bovine; details: for inhibition of isomerization (in words): in vitro
T1 construct: Purified RPE microsomes were the source of the enzymes; from tissue; host or cells: bovine retinal pigment epithelium microsomes
T1 sequence (Q28175 2-533 limits assumed): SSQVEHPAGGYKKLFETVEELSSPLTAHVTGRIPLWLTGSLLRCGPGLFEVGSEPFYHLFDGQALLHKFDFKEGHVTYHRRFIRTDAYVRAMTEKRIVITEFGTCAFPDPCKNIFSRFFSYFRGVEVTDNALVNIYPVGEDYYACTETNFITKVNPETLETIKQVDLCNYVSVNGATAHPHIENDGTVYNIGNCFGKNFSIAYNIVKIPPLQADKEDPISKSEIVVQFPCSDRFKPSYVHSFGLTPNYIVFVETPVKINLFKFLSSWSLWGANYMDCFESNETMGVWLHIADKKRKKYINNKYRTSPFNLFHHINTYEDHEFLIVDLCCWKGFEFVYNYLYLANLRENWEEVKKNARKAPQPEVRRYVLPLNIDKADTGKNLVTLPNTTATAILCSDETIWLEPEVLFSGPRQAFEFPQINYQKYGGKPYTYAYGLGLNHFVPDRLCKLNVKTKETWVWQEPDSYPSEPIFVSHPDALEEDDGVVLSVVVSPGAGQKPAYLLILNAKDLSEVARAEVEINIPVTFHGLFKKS
Description: (§1) To test if 11-cis-retinylamine (11-cis Ret-NH2) affects isomerization and esterification, an in vitro assay was employed. In this assay both of the all-trans-retinyl esters formed in the reaction catalyzed by LRAT and 11-cis-retinol production by isomerase were measured (6). Purified RPE microsomes were the source of the enzymes, and all-trans-retinol was the substrate. […] Inhibition of isomerization by Ret-NH2 is not due to binding of CRALBP or competition with 11-cis-retinol for binding to CRALBP. […] An increased concentration of all-trans-retinol lowered the level of inhibition, as illustrated in FIG. 2B. […] Dixon's and Lineweaver-Burk plots in the standard assay conditions yielded Ki=0.1 μM for Ret-NH2 when all-trans-retinol (KM=0.3 μM) was assumed to be a substrate. […] This estimated value reflects the very potent nature of the inhibition by 11-cis-Ret-NH2.
Materials—Fresh bovine eyes were obtained from a local slaughterhouse (Schenk Packing Co., Inc., Stanwood, Wash.). Preparation of bovine RPE microsomes was performed according to previously described methods (Stecher et al., J Biol Chem 274:8577-85, 1999). All chemicals were purchased from Sigma-Aldrich (St. Louis, Mo.). 11-cis-Retinal was obtained from Dr. Rosalie Crouch (Charleston, S.C.).
Reaction conditions for isomerase and LRAT reaction—The isomerase reaction was performed essentially as described previously (Stecher et al., J Biol Chem 274:8577-85, 1999). The reaction was carried out in 10 mM BTP buffer, pH 7.5, 1% BSA, containing 1 mM ATP and 6 μM apo-CRALBP. To investigate inhibition properties of Ret-NH2 and its derivatives, RPE microsomes were preincubated for 5 min in 37° C. with the indicated compound in 10 mM BTP buffer, pH 7.5, 1% BSA, 1 mM ATP prior to addition of apo-CRALBP and all-trans-retinol. Ret-NH2 and its derivatives were delivered to the reaction mixture in 1 μl of DMF, and the same volume of DMF was added to the control reaction. Each experiment was performed three times in duplicate. The average values were used and the standard deviations were calculated.

LRAT = biological target: T2, LRAT (Bos taurus, UniProt Q9BGL2); test: LRAT reaction: formation of all-trans-retinyl esters by RPE microsomes; assay type: biochemical, bovine; details: all-trans-retinol substrate
T2 construct: Purified RPE microsomes were the source of the enzymes; from tissue; host or cells: bovine retinal pigment epithelium microsomes
T2 sequence (Q9BGL2 1-230): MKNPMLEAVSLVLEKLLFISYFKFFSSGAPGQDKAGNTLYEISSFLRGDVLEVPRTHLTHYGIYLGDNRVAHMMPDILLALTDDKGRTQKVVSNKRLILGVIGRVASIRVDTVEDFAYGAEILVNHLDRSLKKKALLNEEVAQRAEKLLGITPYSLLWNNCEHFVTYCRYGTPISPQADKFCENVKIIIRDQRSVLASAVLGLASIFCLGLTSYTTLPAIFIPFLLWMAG
Description: as §1
Materials—Fresh bovine eyes were obtained from a local slaughterhouse (Schenk Packing Co., Inc., Stanwood, Wash.). Preparation of bovine RPE microsomes was performed according to previously described methods (Stecher et al., J Biol Chem 274:8577-85, 1999). […]
Reaction conditions for isomerase and LRAT reaction—The isomerase reaction was performed essentially as described previously (Stecher et al., J Biol Chem 274:8577-85, 1999). […] The average values were used and the standard deviations were calculated.

CRALBP = CRALBP (Homo sapiens, UniProt P12271); test: analysis of retinoids bound to CRALBP isolated from the reaction mixture; assay type: binding
[1] = tested on: regeneration of vision chromophore (11-cis-retinal); test: regeneration of 11-cis-retinal in mouse eyes after gavage and light bleach, HPLC retinoid analysis; assay type: in vivo; details: gavage in vegetable oil, 16 hours dark, light stimulated, 5 hours dark
Description: Mice were gavaged with all-trains-Ret-NH2, exposed to intense light for 20 min, and then allowed to recover in the dark for 5 hours. The total amount of different forms of retinoids in all experiments was unchanged. […] For this experiment mice were treated with both 9-cis-retinol and all-trans-Ret-NH2, and bleached after 24 hours, and were allowed to recover for 5 hours in the dark. The presence of 9-cis-retinal was confirmed in treated animals (see peaks 4 and 4′ in FIG. 4A bottom panel, corresponding to syn- and anti-9-cis-retinal oximes, respectively). 11-cis-Retinal was not reduced and/or esterified after treatment with Ret-NH2. […] This supports the idea that Ret-NH2 is a specific inhibitor of the isomerization reaction.
A. Chromatographic separation of nonpolar retinoids from WT mouse eyes. Mice were gavaged with all-trans-Ret-NH2 24 hours prior to bleaching for 20 min at 150 cd·m^−2 W in the Ganzfeld chamber. Regeneration of 11-cis-retinal was allowed for 24 hours in the dark, and retinoids were extracted from the eye and separated by normal phase HPLC as described in Materials and Methods. The peaks were identified based on elution time and absorption spectra correspond to the following retinoids: 1, all-trans-retinyl esters; 2,2′, syn- and anti-11-cis-retinal oximes; 3, syn-all-trans-retinal oxime; 4,4′, syn- and anti-9-cis-retinal oximes; 5, all-trans-retinol. B. Changes of 11-cis-retinal oxime levels at increasing doses of all-trans-Ret-NH2 during 5 hours or 24 hours of dark adaptation. Square indicates the level of 11-cis-retinal oximes that was present in mice gavaged with vegetable oil without retinoids just after bleaching, and arrow indicates the increase of visual chromophore during 5 hours of dark adaptation. Triangles correspond to the level of 11-cis-retinal found in the mice gavaged with 50 mg/kg of 13-cis-RA. C and D. Single flash ERG responses of increasing intensity for all-trans-Ret-NH2 treated mice and control mice. Serial responses to increasing flash stimuli were obtained for all-trans-Ret-NH2 treated and control mice for selected intensities (C) and plotted as a function of a-wave and b-wave versus varying light intensities under dark-adapted conditions (D) before bleach and at 5 hours and 24 hours after bleach. The dark-adapted mice were bleached with intense constant illumination (150 cd·m^−2) for 20 min. […] SE bars are shown.
Chromatographic separation of nonpolar retinoids from WT mouse eyes. Mice were gavaged with 100 mg/kg of all-trans-Ret-NH2 24 hours prior to bleaching. Mice were next exposed to 500 cd m^−2 for 48 min bleaching in the Ganzfeld chamber. Regeneration of 11-cis-retinal was allowed for 24 hours in the dark, and retinoids were extracted from the eye and separated by normal phase HPLC as described in Materials and Methods. The peaks identified based on elution time and absorption spectra correspond to the following retinoids: 1, all-trans-retinyl esters; 2,2′, syn- and anti-1-cis-retinal oximes; 3,3′ syn- and anti-all-trans-retinal oximes; 4, all-trans-retinol.
Mice were gavaged with the solution of inhibitor in vegetable oil (control—non-treated, RPN—retinylpalmitamide, RAN—retinylacetamide, Ret—NH2-all-trans-retinylamine), kept in dark for 16 hours, then light stimulated and kept in dark for additional 5 hours before their eyes were analyzed.
Mouse retinoid extraction and analysis—Retinoid analysis was performed under dim red light as described previously (Maeda et al., J. Neurochem 85:944-956, 2003; Van Hooser et al., J Biol Chem 277:19173-82, 2002). Mice were gavaged with retinoids as described previously (Van Hooser et al., J Biol Chem 277:19173-82, 2002).

RPE protein(s) = test: gel filtration chromatography of DHPC-solubilized RPE microsome proteins with retinoid; assay type: binding, bovine; details: for gel filtration elution position (fractions): Superdex 200, native RPE extract, proteins elute in fractions 18-60
Description: The specificity of Ret-NH2 was further tested by biochemical assays. […] When the RPE microsomes were solubilized with DHPC, the isomerase activity decreased only slightly. Then [^3H]-Ret-NH2 was added to the RPE extract and loaded on a gel filtration column. Proteins were fractionated and eluted between fractions 18 and 60 (FIG. 3A), while the radioactivity was eluted in fractions 36-38. RPE65 was identified by immunoblotting in fractions 23-34 (FIG. 3B). The most abundant proteins in this fraction were identified by mass spectrometry and include glucose phosphate isomerase, D-glyceraldehyde-3-phosphate dehydrogenase, phosphoglycerate mutase, triose phosphate isomerase, enolase, annexin V, calbindin 2, and LRAT. Identification of less abundant proteins is in progress.
RPE microsomes were solubilized with 10 mM DHPC, incubated with 11,12-di[^3H]-all-trans-Ret-NH2 (1 μM), and loaded on a Superdex 200 column equilibrated with Tris/HCl buffer, pH 7.5, containing 4 mM DHPC. Proteins were eluted with a constant flow rate of 0.4 ml/min. The protein and radioactivity levels of 0.4 ml fractions were examined by SDS-PAGE and scintillation counting (A), and immunoblot with anti-RPE65 and anti-LRAT antibodies (B). The star indicates the fraction associated with maximum radioactivity.

RAR = test: F9-RARE-lacZ reporter cell line, β-galactosidase activity (DR5 elements); assay type: cell-based; details: 24 hours treatment, micromolar concentrations
From the text: 13-cis-RA can isomerize to all-trans-RA and then to 9-cis-RA, both of which are potent ligands of the RA receptor (RAR). 9-cis-RA also binds and activates the retinoid X receptor (RXR). This contributes to the toxicity of the RAR and RXR ligands. It was investigated whether Ret-NH2 can activate these nuclear receptor using reporter-cells as described previously (20). A β-galactosidase activity assay was employed to examine if all-trans-RA, 9-cis-RA, and Ret-NH2 are agonists for these nuclear receptors.
F9-RARE-lacZ cells express endogenous RAR and RXR and were transfected with a construct of lacZ under the control of a minimal promoter and upstream DR5 elements (1). F9-RARE-lacZ cells were treated with different doses of all-trans-RA or Ret-NH2 for 24 hours after which the cells were harvested and the β-galactosidase activity was measured using the soluble substrate o-nitrophenyl β-D-galactopyranoside. The colorless substrate was cleaved by β-galactosidase to yellow colored o-nitrophenol, whose absorbance was measured at 420 nm using a spectrophotometer. The experiment was repeated twice with similar results. The RARE reporter cell line F9-RARE-lacZ (SIL15-RA) was a kind gift from Dr. Michael Wagner (SUNY Downstate Medical Center) and Dr. Peter McCaffery (University of Massachusetts Medical School). […]

CRALBP, sequence (P12271 whole entry, species assumed): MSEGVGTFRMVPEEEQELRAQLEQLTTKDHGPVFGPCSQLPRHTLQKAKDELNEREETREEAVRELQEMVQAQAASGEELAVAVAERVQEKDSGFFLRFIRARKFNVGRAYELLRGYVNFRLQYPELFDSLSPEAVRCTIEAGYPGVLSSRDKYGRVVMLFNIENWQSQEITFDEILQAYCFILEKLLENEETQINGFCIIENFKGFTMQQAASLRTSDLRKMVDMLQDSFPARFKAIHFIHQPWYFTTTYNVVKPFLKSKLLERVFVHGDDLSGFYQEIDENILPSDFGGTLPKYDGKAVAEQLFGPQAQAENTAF

IC50 (isomerase; RPE microsomes, all-trans-retinol substrate, read-out: IC50, inhibition of 11-cis-retinol production): 70 nM
inhibition of isomerization (in words) (isomerase; RPE microsomes): most potent inhibitor
formation of all-trans-retinyl esters (LRAT activity) (LRAT): not affected
binding to CRALBP (CRALBP): did not reveal any significant levels
SMILES: CC(C=CC1=C(C)CCCC1(C)C)=CC=CC(C)=CCN (single isomer, unassigned) [11-cis-Ret-NH2, 11-cis-retinylamine]

inhibition of isomerization (in words) (isomerase; RPE microsomes): did not inhibit isomerization
inhibition of isomerization (in words) (isomerase; RPE microsomes, listed as N-palmitoylretinamide): non-inhibitory
SMILES: CCCCCCCCCCCCCCCC(=O)NC/C=C(C)/C=C/C=C(C)/C=C/C1=C(C)CCCC1(C)C [N-Retinylpalmitamide]
inhibition of regeneration of vision chromophore in mice by retinylamides [1]: potent inhibitors of regeneration in mice
inhibition of regeneration of vision chromophore in mice by retinylamides ([1]; listed as RPN): same as free retinylamine

SMILES: CC(=O)NC/C=C(C)/C=C/C=C(C)/C=C/C1=C(C)CCCC1(C)C [N-retinylacetamide]
inhibition of isomerization (in words) (isomerase; RPE microsomes): weakly inhibit the isomerization reaction
inhibition of regeneration of vision chromophore in mice by retinylamides [1]: potent inhibitors of regeneration in mice
inhibition of regeneration of vision chromophore in mice by retinylamides ([1]; listed as RAN): same as free retinylamine
gel filtration elution position (fractions) (RPE protein(s)): eluted either in the void volume or with low molecular weight compounds

SMILES: [3H]C(C=C(C)C=CC1=C(C)CCCC1(C)C)=C([3H])C(C)=CCN [[^3H]-Ret-NH2, 11,12-di[^3H]-all-trans-Ret-NH2]
gel filtration elution position (fractions), heat-denaturated proteins (RPE protein(s); control with heat-denaturated proteins): 48-60

SMILES: CC1=C(/C=C/C(C)=C/C=C/C(C)=C/C(=O)O)C(C)(C)CCC1 [all-trans-RA, All-trans-retinoic acid, reference compound]
activation of transcription through RAR (DR5 RARE) (RAR): activated transcription

Km (isomerase; all-trans-retinol assumed to be a substrate): 0.3 µM
SMILES: CC1=C(/C=C/C(C)=C/C=C/C(C)=C/CO)C(C)(C)CCC1 [all-trans-retinol, reference compound]
inhibition of isomerization (in words) (isomerase; RPE microsomes): weakly inhibit the isomerization reaction
gel filtration elution position (fractions) (RPE protein(s)): eluted either in the void volume or with low molecular weight compounds
